Laboratory results: ChEMBL document CHEMBL1201862, “PubChem BioAssay data set” (2004)
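Grown in 96-well plates, cells were treated for 48 hours with each compound at five concentrations. Insufficient inhibition: endpoint recorded as highest concentration tested. At the GI50, growth is halved.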 Calls of active or inactive are those of the source. Rule as the data show it: active = GI50 up to about 1.1 µM and inactive = higher.

Assays:
Assay in all cases: growth of human tumour cells (NCI), 48 h
OVCAR-4 = tested on: OVCAR-4
COLO 205 = tested on: COLO 205
MDA-MB-231 = tested on: MDA-MB-231
SK-OV-3 = tested on: SK-OV-3
TK-10 = tested on: TK-10
M14 = tested on: M14
RPMI-8226 = tested on: RPMI-8226
CAKI-1 = tested on: CAKI-1
EKVX = tested on: EKVX
HL-60 = tested on: HL-60
ACHN = tested on: ACHN
BT-549 = tested on: BT-549
T47D = tested on: T47D
OVCAR-8 = tested on: OVCAR-8
NCI-H522 = tested on: NCI-H522
SN12C = tested on: SN12C
MOLT-4 = tested on: MOLT-4
HCC 2998 = tested on: HCC 2998
SK-MEL-5 = tested on: SK-MEL-5
HOP-92 = tested on: HOP-92

Compound | GI50 (OVCAR-4) | GI50 (COLO 205) | GI50 (MDA-MB-231) | GI50 (SK-OV-3) | GI50 (TK-10) | GI50 (M14) | GI50 (RPMI-8226) | GI50 (CAKI-1) | GI50 (EKVX) | GI50 (HL-60) | GI50 (ACHN) | GI50 (BT-549) | GI50 (T47D) | GI50 (OVCAR-8) | GI50 (NCI-H522) | GI50 (SN12C) | GI50 (MOLT-4) | GI50 (HCC 2998) | GI50 (SK-MEL-5) | GI50 (HOP-92)
O=Cc1ccccc1B(O)O | 0.368 µM (active) | 14.7 µM (inactive) | 37.8 µM (inactive) | > 100 µM (inactive) | 55.6 µM (inactive) | > 100 µM (inactive) | < 0.01 µM (active) | 47.5 µM (inactive) | < 0.01 µM (active) | 22 µM (inactive) | 19.1 µM (inactive) | 15.1 µM (inactive) | 0.0147 µM (active) | 67.8 µM (inactive) | 22.9 µM (inactive) | > 100 µM (inactive) | 1.09 µM (active) |  |  | 
O=C1CC(c2cccc(Cl)c2)Nc2ccc(N3CCCC3)cc21 (stereo not given) | 6.89 µM (inactive) | 0.194 µM (active) | 0.366 µM (active) | 0.193 µM (active) | 0.942 µM (active) | 0.028 µM (active) | 0.0802 µM (active) | 0.0608 µM (active) | 0.0658 µM (active) |  | 0.0524 µM (active) | 1.29 µM (inactive) | > 100 µM (inactive) | 0.0522 µM (active) | 0.0191 µM (active) | 0.0552 µM (active) | 0.0802 µM (active) | 0.335 µM (active) | 0.0305 µM (active) | 0.373 µM (active)
NC(Cc1ccccc1)c1nn[nH]n1 (stereo not given) | > 100 µM (inactive) | > 100 µM (inactive) | > 100 µM (inactive) | > 100 µM (inactive) | > 100 µM (inactive) | > 100 µM (inactive) | > 100 µM (inactive) | > 100 µM (inactive) | > 100 µM (inactive) | > 100 µM (inactive) | > 100 µM (inactive) | > 100 µM (inactive) | > 100 µM (inactive) | > 100 µM (inactive) | > 100 µM (inactive) | > 100 µM (inactive) | < 0.01 µM (active) |  | > 100 µM (inactive) | > 100 µM (inactive)
CC(C)(C)OC(=O)[C@@H]1CCC(=O)N1C1(c2ccccc2)c2ccccc2-c2ccccc21 | 28.6 µM (inactive) | 21.4 µM (inactive) | 16.4 µM (inactive) | > 100 µM (inactive) | > 100 µM (inactive) | 50.4 µM (inactive) |  | 88.5 µM (inactive) | 82.8 µM (inactive) | 37.2 µM (inactive) | 26.9 µM (inactive) | > 100 µM (inactive) | 44.9 µM (inactive) | 88.1 µM (inactive) | 26.9 µM (inactive) | 39.3 µM (inactive) | 25.9 µM (inactive) | 52.8 µM (inactive) | 23.9 µM (inactive) | 26.3 µM (inactive)
O=C(O)c1c[nH]c2c(Sc3ccccc3)nccc2c1=O | > 100 µM (inactive) | > 100 µM (inactive) | > 100 µM (inactive) | > 100 µM (inactive) | > 100 µM (inactive) | > 100 µM (inactive) |  | > 100 µM (inactive) | 70.3 µM (inactive) | 78.7 µM (inactive) | > 100 µM (inactive) | 33 µM (inactive) | > 100 µM (inactive) | > 100 µM (inactive) | 76.7 µM (inactive) | > 100 µM (inactive) | > 100 µM (inactive) |  | > 100 µM (inactive) | > 100 µM (inactive)
O=C1CSC(c2ccccc2O)N1c1ccc(-c2ccc(-n3c(-c4ccccc4)nc4ccccc4c3=O)cc2)cc1 (stereo not given) | 31 µM (inactive) | 21.6 µM (inactive) | 36.9 µM (inactive) | 64.1 µM (inactive) | 16.1 µM (inactive) | 38.5 µM (inactive) | 33.6 µM (inactive) | 26.1 µM (inactive) | 37.4 µM (inactive) | 23.4 µM (inactive) |  | 13.7 µM (inactive) | 23 µM (inactive) | 24.3 µM (inactive) | 19.2 µM (inactive) | 74 µM (inactive) | 25.4 µM (inactive) |  |  | 27.6 µM (inactive)
CC1CCc2sc3nc4n(c(=O)c3c2C1)CC(C)S4 (stereo not given) | 25.5 µM (inactive) | 18 µM (inactive) | 20.4 µM (inactive) | 29.7 µM (inactive) | 25.1 µM (inactive) | 25.4 µM (inactive) | 30.8 µM (inactive) | 36.9 µM (inactive) | 15.1 µM (inactive) |  | 24.9 µM (inactive) | 27.5 µM (inactive) | 22.4 µM (inactive) | 32.2 µM (inactive) | 30.9 µM (inactive) | 21.5 µM (inactive) |  | 19.7 µM (inactive) | 18.9 µM (inactive) | 26.1 µM (inactive)
COc1cccc(/N=N/C(=N/NC(=O)c2cc(Cl)ccc2O)c2ccc(N(CCC#N)CCC#N)cc2C)c1 | 19.8 µM (inactive) | 6.21 µM (inactive) | 35.1 µM (inactive) | 52 µM (inactive) | 48.8 µM (inactive) | 42.3 µM (inactive) | 61.2 µM (inactive) | 48.3 µM (inactive) | 20.3 µM (inactive) |  | 46.3 µM (inactive) | 34.3 µM (inactive) | 7.35 µM (inactive) | 16.9 µM (inactive) | 9.1 µM (inactive) | 27.5 µM (inactive) | 19.1 µM (inactive) | 23.6 µM (inactive) | 29.9 µM (inactive) | 
OCCOCCN1CCN(CCCN2c3ccccc3Sc3ccc(C(F)(F)F)cc32)CC1 | 15.7 µM (inactive) | 1.75 µM (inactive) | 11.1 µM (inactive) | 19.5 µM (inactive) | 11.7 µM (inactive) | 2.65 µM (inactive) | 3.17 µM (inactive) | 15.3 µM (inactive) | 14.8 µM (inactive) |  | 17.7 µM (inactive) | 19.8 µM (inactive) | 0.955 µM (active) | 15.2 µM (inactive) | 14.7 µM (inactive) | 13.6 µM (inactive) | 13.1 µM (inactive) | 2.78 µM (inactive) | 3.22 µM (inactive) | 14.1 µM (inactive)
Cc1cccc(NC(=S)NNC(=O)c2cc(-c3ccccc3)nc3ccccc23)c1 | 57.9 µM (inactive) | 19.5 µM (inactive) | 27.9 µM (inactive) | 25.6 µM (inactive) | 40.4 µM (inactive) | 35 µM (inactive) | 30.1 µM (inactive) | 32.7 µM (inactive) |  |  | 36.1 µM (inactive) | 47.9 µM (inactive) | 34.1 µM (inactive) | 39.8 µM (inactive) | 26.2 µM (inactive) | 40.1 µM (inactive) | 27.5 µM (inactive) | 25.1 µM (inactive) | 19.9 µM (inactive) | 26.2 µM (inactive)
O=C(CCCN1CCC2(CC1)CC(=O)N(N1CCOCC1)C2=O)c1ccc(F)cc1 |  | > 100 µM (inactive) | > 100 µM (inactive) | > 100 µM (inactive) | > 100 µM (inactive) | > 100 µM (inactive) | > 100 µM (inactive) | > 100 µM (inactive) |  | > 100 µM (inactive) | > 100 µM (inactive) | > 100 µM (inactive) | > 100 µM (inactive) | > 100 µM (inactive) | > 100 µM (inactive) | > 100 µM (inactive) | > 100 µM (inactive) |  | > 100 µM (inactive) | 
COc1ccc(/N=N/C(=N\c2ccc(F)cc2)c2ccc(N(CCC#N)CCC#N)cc2)cc1 | 40.9 µM (inactive) | 39.2 µM (inactive) | 14.3 µM (inactive) | 58.5 µM (inactive) | 46.5 µM (inactive) | 28.6 µM (inactive) | 39.2 µM (inactive) | 81.8 µM (inactive) | 34.4 µM (inactive) |  | 82.8 µM (inactive) | 17.5 µM (inactive) | 11.2 µM (inactive) | 33.5 µM (inactive) | 20 µM (inactive) | 31.8 µM (inactive) | 31.2 µM (inactive) | 19.1 µM (inactive) | 12.4 µM (inactive) | 25.6 µM (inactive)
CCCCNC(=S)Nc1nc(C(=O)NNS(=O)(=O)c2ccccc2)cs1 |  | 17.9 µM (inactive) | 29.4 µM (inactive) | 36.6 µM (inactive) | 36 µM (inactive) | 40.1 µM (inactive) | 31.2 µM (inactive) | 27.7 µM (inactive) | 31.6 µM (inactive) |  | 28.7 µM (inactive) | 32.7 µM (inactive) | 71.8 µM (inactive) | 33.7 µM (inactive) | 28.8 µM (inactive) | 25.6 µM (inactive) | 34.8 µM (inactive) | 30.5 µM (inactive) | 17 µM (inactive) | 64.7 µM (inactive)
O=c1c(-c2ccccc2)nnc2n(Cc3ccccc3)c3ccccc3n12 | > 100 µM (inactive) | > 100 µM (inactive) | > 100 µM (inactive) |  | > 100 µM (inactive) | > 100 µM (inactive) |  | > 100 µM (inactive) | > 100 µM (inactive) | > 100 µM (inactive) | > 100 µM (inactive) | > 100 µM (inactive) | > 100 µM (inactive) | > 100 µM (inactive) | 26.7 µM (inactive) | > 100 µM (inactive) | > 100 µM (inactive) | > 100 µM (inactive) | > 100 µM (inactive) | 28.6 µM (inactive)
C[N+]1(C)[C@@H]2CC[C@H]1C[C@@H](OC(=O)C(CO)c1ccccc1)C2 (stereo not given in full) [ATROPINE METHYLBROMIDE] | > 100 µM (inactive) | > 100 µM (inactive) | > 100 µM (inactive) | > 100 µM (inactive) | > 100 µM (inactive) | > 100 µM (inactive) | > 100 µM (inactive) | > 100 µM (inactive) | > 100 µM (inactive) |  | > 100 µM (inactive) | > 100 µM (inactive) | > 100 µM (inactive) | > 100 µM (inactive) | > 100 µM (inactive) | > 100 µM (inactive) | > 100 µM (inactive) |  | > 100 µM (inactive) | 
